Results taken from ChEMBL document CHEMBL5230160, “Chemotherapeutics for Toxoplasma gondii: Molecular Biotargets, Binding Modes, and Structure-Activity Relationship Investigations” (J Med Chem, 2021).
pEC50, pIC50: −log10 of the molar value. ≈ marks a conversion by molar mass, not a printed value.

Experiments:
[1] = Inhibition of Toxoplasma gondii FPPS incubated for 30 mins by scintillation counting analysis
[2] = tested on: Vero; experiment: Cytotoxicity against African green monkey Vero cells assessed as cell growth inhibition by alamar blue assay; type: functional; conditions: Chlorocebus sabaeus, read-out: ED50 (the source's name)
[3] = tested on: Toxoplasma gondii; experiment: Antiparasitic activity against Toxoplasma gondii tachyzoites; type: functional, organism-based; conditions: Toxoplasma gondii; for pEC50: read-out: ED50 (the source's name); for pIC50 / IC50: read-out: IC50
[4] = tested on: Toxoplasma gondii; experiment: Antiparasitic activity against Toxoplasma gondii tachyzoites infected in human HeLa cells measured after 24 hrs by MTT assay; type: functional, organism-based
[5] = tested on: HeLa; experiment: Cytotoxicity against human HeLa cells assessed as cell growth inhibition measured after 24 hrs by MTT assay; type: functional, cell-based
[6] = Selectivity index, ratio of IC50 for cytotoxicity against human HeLa cells to IC50 for antiparasitic activity against Toxoplasma gondii tachyzoites infected in human HeLa cells; type: toxicity, cell-based; conditions: for selectivity ratio: read-out: Ratio IC50
[7] = tested on: Toxoplasma gondii; experiment: Antiparasitic activity against Toxoplasma gondii tachyzoites infected in mouse assessed as survival at 10 mg/kg relative to control; type: functional
[8] = Inhibition of Toxoplasma gondii recombinant ENR in presence of NADH by absorbance based analysis
[9] = tested on: Toxoplasma gondii; experiment: Antiparasitic activity against Toxoplasma gondii infected in HFF cells by fluorescence based analysis; type: functional, organism-based
[10] = Inhibition of Toxoplasma gondii recombinant PNP

Compound: CCCCCCCCCNCC(P(=O)(O)O)P(=O)(O)O
- pIC50 [1]: 6.36

Compound: N#CSCCOc1ccc(Oc2ccc(C(F)(F)F)cc2)cc1
- pEC50 [2]: < 4.30
- pEC50 [3]: 5.73

Compound: CCCCCCCCC[S+]([O-])CC(P(=O)(O)O)P(=O)(O)O (configuration not stated)
- pIC50 [1]: 7.25

Compound: COc1cc(-n2cc(/C=C3/C[C@@]4(C)[C@H](CC[C@]5(C)[C@@H]4CC=C4[C@@H]6[C@@H](C)[C@H](C)CC[C@]6(C(=O)O)CC[C@]45C)C(C)(C)C3=O)nn2)cc(OC)c1OC
- pIC50 ([4]; Toxoplasma gondii, HeLa, 24 h): 3.52
- pIC50 ([5]; Homo sapiens, HeLa, 24 h): 3.45
- selectivity ratio [6]: 1.17

Compound: CC(=O)O[C@H]1C[C@@]2(C)[C@@H](C[C@@H](O)[C@H]3[C@@]4(C)CC[C@@H](O)[C@@H](C)[C@@H]4CC[C@@]32C)/C1=C(\CCC=C(C)C)C(=O)O [FUSIDIC ACID]
- survival at 10 mg/kg [7]: 90%
- pIC50 [3]: 5.15

Compound: C[C@H]1[C@H](C)CC[C@]2(C(=O)OCCn3cnnc3-c3ccccc3)CC[C@]3(C)C(=CC[C@@H]4[C@@]5(C)CC[C@H](O)C(C)(C)[C@H]5CC[C@]43C)[C@H]12
- pIC50 ([4]; Toxoplasma gondii, HeLa, 24 h): 4.06
- pIC50 ([5]; Homo sapiens, HeLa, 24 h): 3.99
- selectivity ratio [6]: 1.15

Compound: N#CSCCOc1ccc(Oc2cccc(Oc3cccc(F)c3)c2)cc1
- pEC50 [2]: < 4.30
- pEC50 [3]: 5.79

Compound: O=P(O)(O)C(CSCCOc1cccc(Oc2ccccc2)c1)P(=O)(O)O
- pEC50 [2]: < 4.00
- pEC50 [3]: 6.17

Compound: Oc1cc(Cl)ccc1Oc1ccc(CNc2ccccc2)cc1Cl
- pIC50 [8]: 7.51
- pIC50 [9]: < 5.00

Compound: O=P(O)(O)C(CNCCOc1cccc(Oc2ccccc2)c1)P(=O)(O)O
- pEC50 [2]: < 4.30
- pEC50 [3]: 5.62

Compound: N#CSCCOc1ccc2ccccc2c1
- pEC50 [2]: < 4.00
- pEC50 [3]: 5.44

Compound: Oc1ccc(Oc2ccc(Cl)cc2O)c(Cl)c1
- pIC50 [8]: 8.52
- pIC50 [9]: 5.51

Compound: CCCc1ccc(Oc2ccc(C#N)cc2Cl)c(O)c1
- pIC50 [8]: > 7.70
- pIC50 [9]: 5.22

Compound: CCCCCCCCCC[S+]([O-])CC(P(=O)(O)O)P(=O)(O)O (configuration not stated)
- pIC50 [1]: < 5.00

Compound: N#CSCCOc1ccc(Oc2ccncc2)cc1
- pEC50 [2]: < 3.70
- pEC50 [3]: 5.10

Compound: C[C@H]1[C@H](C)CC[C@]2(C(=O)O)CC[C@]3(C)C(=CC[C@@H]4[C@@]5(C)C/C(=C/c6cn(-c7ccccc7Cl)nn6)C(=O)C(C)(C)[C@H]5CC[C@]43C)[C@H]12
- pIC50 ([4]; Toxoplasma gondii, HeLa, 24 h): 3.62
- pIC50 ([5]; Homo sapiens, HeLa, 24 h): 3.33
- selectivity ratio [6]: 1.95

Compound: CCCCCCCCNCC(F)(P(=O)(O)O)P(=O)(O)O
- pIC50 [1]: 7.46

Compound: Cc1occc1C(=O)NN=C(S)Nc1ccccc1
- IC50 [3]: 59 µg/mL

Compound: CCCCCCCCNCC(O)(P(=O)(O)O)P(=O)(O)O
- pIC50 [1]: 7.41

Compound: CCCc1ccc(Oc2ccc([N+](=O)[O-])cc2Cl)c(O)c1
- pIC50 [8]: > 7.70
- pIC50 [9]: 5.22

Compound: N#CSCCOc1ccc(Oc2ccccc2)cc1
- pEC50 [2]: 4.08
- pEC50 [3]: 5.32

Compound: N#CSCCOc1ccc(Oc2cccc(C(F)(F)F)c2)cc1
- pEC50 [2]: < 4.30
- pEC50 [3]: 5.78

Compound: C/C(=N\Nc1nc(-c2ccc(Cl)c(Cl)c2)cs1)c1ccc(Nc2nc(N)nc(N)n2)cc1
- IC50 [3]: 14.9 µg/mL

Compound: N#CSCCOc1ccc(Oc2ccc3ccccc3c2)cc1
- pEC50 [2]: 3.98
- pEC50 [3]: 5.65

Compound: CCCCCCNCC(O)(P(=O)(O)O)P(=O)(O)O
- pIC50 [1]: 7.29

Compound: CCCCCCCC[S+]([O-])CC(P(=O)(O)O)P(=O)(O)O (configuration not stated)
- pIC50 [1]: 7.80

Compound: Nc1ncnc2c1ncn2Cc1c(F)cccc1Cl [ARPRINOCID]
- survival at 10 mg/kg [7]: 100%
- pIC50 [3]: 5.15

Compound: N#CSCCOc1ccc(Oc2cccc3ccccc23)cc1
- pEC50 [3]: 5.54

Compound: CCCCCCCCCCNCC(P(=O)(O)O)P(=O)(O)O
- pIC50 [1]: 7.17

Compound: O=c1[nH]cnc2c([C@@H]3N[C@H](CO)[C@@H](O)[C@H]3O)c[nH]c12 [FORODESINE]
- pIC50 [10]: 9.43

Compound: C[C@H]1[C@H](C)CC[C@]2(C(=O)OCCn3cnnc3-c3ccc(F)cc3)CC[C@]3(C)C(=CC[C@@H]4[C@@]5(C)CC[C@H](O)C(C)(C)[C@H]5CC[C@]43C)[C@H]12
- pIC50 ([4]; Toxoplasma gondii, HeLa, 24 h): 4.29
- pIC50 ([5]; Homo sapiens, HeLa, 24 h): 4.05
- selectivity ratio [6]: 1.44

Compound: N#CSCCOc1ccc(Oc2ccccn2)cc1
- pEC50 [2]: < 3.70
- pEC50 [3]: < 5.00

Compound: O=C(NNC(=S)Nc1ccc(F)cc1)c1cccs1
- IC50 [3]: 33.2 µg/mL

Compound: CCCCCCCCCNCC(F)(P(=O)(O)O)P(=O)(O)O
- pIC50 [1]: 7.22

Compound: C[C@H]1[C@H](C)CC[C@]2(C(=O)O)CC[C@]3(C)C(=CC[C@@H]4[C@@]5(C)C/C(=C/c6cn(-c7ccccc7I)nn6)C(=O)C(C)(C)[C@H]5CC[C@]43C)[C@H]12
- pIC50 ([4]; Toxoplasma gondii, HeLa, 24 h): 3.56
- pIC50 ([5]; Homo sapiens, HeLa, 24 h): 3.64
- selectivity ratio [6]: 0.84

Compound: C[C@H]1[C@H](C)CC[C@]2(C(=O)O)CC[C@]3(C)C(=CC[C@@H]4[C@@]5(C)C/C(=C/c6cn(-c7ccccc7Br)nn6)C(=O)C(C)(C)[C@H]5CC[C@]43C)[C@H]12
- pIC50 ([4]; Toxoplasma gondii, HeLa, 24 h): 3.52
- pIC50 ([5]; Homo sapiens, HeLa, 24 h): 3.62
- selectivity ratio [6]: 0.8

Compound: CCCCc1cn(Cc2ccc(Oc3ccc(Cl)cc3O)c(Cl)c2)nn1
- pIC50 [8]: 7.37
- pIC50 [9]: 6.60

Compound: Cc1nnsc1C(=O)NNC(=S)Nc1ccc(F)cc1F
- IC50 [3]: 92.3 µg/mL

Compound: SPIRAMYCIN
- pIC50 ([4]; hela): 3.58
- pIC50 ([5]; hela): 3.72
- Ratio IC50 [6]: 0.72

Compound: CCCCCCCCCCCCCCNCC(P(=O)(O)O)P(=O)(O)O
- pIC50 [1]: 6.53

Compound: N#CSCCOc1cccc2ccccc12
- pEC50 [2]: < 4.30
- pEC50 [3]: 5.50

Compound: Cc1nnsc1C(=O)NNC(=S)Nc1ccccc1Br
- IC50 [3]: 74.9 µg/mL

Compound: O=[N+]([O-])c1ccc(Oc2ccc(Cl)cc2O)c(Cl)c1
- pIC50 [8]: > 7.70
- pIC50 [9]: 5.40

Compound: CCCCCNCC(O)(P(=O)(O)O)P(=O)(O)O
- pIC50 [1]: 7.17

Compound: N#Cc1ccc(Oc2ccc(Cl)cc2O)c(Cl)c1
- pIC50 [8]: 7.62

Compound: CCCc1ccc(Oc2ccc(N)cc2Cl)c(O)c1
- pIC50 [8]: > 7.70
- pIC50 [9]: 5.22

Compound: CCCCCCCNCC(O)(P(=O)(O)O)P(=O)(O)O
- pIC50 [1]: < 6.00

Compound: Oc1cc(Cl)ccc1Oc1ccc(Cn2ccnn2)cc1Cl
- pIC50 [8]: 7.59
- pIC50 [9]: 6.60

Compound: N[C@@H]1[C@H]2CN(c3nc4c(cc3F)c(=O)c(C(=O)O)cn4-c3ccc(F)cc3F)C[C@@H]12 [TROVAFLOXACIN]
- survival at 10 mg/kg [7]: 90%

Compound: CCCCCCCCCCCCNCC(P(=O)(O)O)P(=O)(O)O
- pIC50 [1]: 7.03

Compound: CCCCCCCCCCCNCC(P(=O)(O)O)P(=O)(O)O
- pIC50 [1]: 6.06

Compound: N#CSCCOc1ccc(Oc2cccc(Oc3ccccc3Cl)c2)cc1
- pEC50 [2]: < 4.30
- pEC50 [3]: 5.67

Compound: C[C@@H](Oc1cc(-c2cnn(C3CCNCC3)c2)cnc1N)c1c(Cl)ccc(F)c1Cl [CRIZOTINIB]
- pIC50 [3]: 5.40

Compound: CC(=O)c1cc(Oc2ccccc2)ccc1OCCSC#N
- pEC50 [2]: 4.12

Compound: N#CSCCOc1ccc(Oc2cccnc2)cc1
- pEC50 [2]: 3.87
- pEC50 [3]: 5.43

Compound: CCCCCCCCCCNCC(O)(P(=O)(O)O)P(=O)(O)O
- pIC50 [1]: 6.90

Compound: Oc1cc(Cl)ccc1Oc1ccc(NCc2ccccc2)cc1Cl
- pIC50 [8]: 7.89
- pIC50 [9]: 6.70

Compound: N#Cc1ccccc1CNc1ccc(Oc2ccc(Cl)cc2O)c(Cl)c1
- pIC50 [8]: 7.80
- pIC50 [9]: < 5.00

Compound: O=C(Nc1ccc([N+](=O)[O-])cc1Cl)c1cc(Cl)ccc1O [NICLOSAMIDE]
- MIC50 [3]: 0.2 µM (≈ 0.0654 µg/mL)

Compound: CCCCCCC[S+](C)CC(P(=O)(O)O)P(=O)(O)O (configuration not stated)
- pIC50 [1]: 7.89

Compound: CO[C@H]1/C=C/O[C@@]2(C)Oc3c(C)c(O)c4c(O)c(c(/C=N/N5CCN(C6CCCC6)CC5)c(O)c4c3C2=O)NC(=O)/C(C)=C\C=C\[C@H](C)[C@H](O)[C@@H](C)[C@@H](O)[C@@H](C)[C@H](OC(C)=O)[C@@H]1C [RIFAPENTINE]
- survival at 10 mg/kg [7]: 90%

Compound: CCCCCCC[S+]([O-])CC(P(=O)(O)O)P(=O)(O)O (configuration not stated)
- pIC50 [1]: 8.05

Compound: S=c1[nH]nc(-c2cccs2)[nH]1
- pIC50 [10]: 3.71
